Assay results as given in patent US4578489A (priority 1982, dated 1986).
Read-outs that look alike come from different tables or passages of the source.

Experiments:
Aureobasidium pullulans [1] = experiment: Minimum inhibitory concentration against fungi, agar incorporation test, strain R; type: cell-based; conditions: malt extract/agar
In short: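 Compounds incorporated in malt extract agar at final 2, 5, 10, 50 and 100 mg/liter. Agar inoculated dropwise with traces of fungus. Value is the concentration (mg/liter) needed to inhibit growth.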

Enterobacter aerogenes = experiment: Minimum inhibitory concentration against bacteria, strain C; type: cell-based; conditions: 24 hours at 30° C.; tested at 100 and 300 mg/liter
In short: (§1)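 Overnight cultures diluted 1/1000 in saline, then 1/1000 again into Caso peptone bouillon. Compounds added at 100 and 300 mg/liter; incubation 24 hours at 30° C. with shaking, then growth judged by turbidity.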

[2] = system: Alcaligenes denitrificans; experiment: Minimum inhibitory concentration against bacteria, strain E; type: cell-based; conditions: 24 hours at 30° C.; tested at 100 and 300 mg/liter
In short: as §1

Chlorella vulgaris = experiment: Action against algae: Chlorella vulgaris; type: cell-based; parameters: key: --: no growth on the agar, 3 ppm have destroyed the algae in 6 hours; conditions: 3 mg/liter; for Growth on the agar (algae-destroying action): 6 hours exposure, 14 days incubation; for Growth in the medium (growth inhibition): 14 days
In short: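 14-day cultures diluted 1/200 in nutrient medium received compound at 3 mg/liter final. After 6 h, samples were spotted on algae/agar for algicidal action; growth inhibition in medium and killing on agar assessed visually after 14 days under 14 h light/10 h dark.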

Bacillus subtilis = experiment: Minimum inhibitory concentration against bacteria, strain F; type: cell-based; conditions: 24 hours at 30° C.; tested at 100 and 300 mg/liter
In short: as §1

Pseudomonas aeruginosa = experiment: Minimum inhibitory concentration against bacteria, strain B; type: cell-based; conditions: 24 hours at 30° C.; tested at 100 and 300 mg/liter
In short: as §1

Chaetomium globosum = experiment: Minimum inhibitory concentration against fungi, agar incorporation test, strain S; type: cell-based; conditions: malt extract/agar
In short: (§2)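 First, compound is blended into malt extract agar (final 2, 5, 10, 50 or 100 mg/liter). Next, traces of fungus are applied dropwise. The MIC is then taken as the concentration needed to inhibit growth.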

[3] = system: Enteromorpha intestinalis; experiment: Action against Enteromorpha intestinalis: inhibitory concentration (MIC); type: in vivo; conditions: seawater containing biocide for entire test; concentration tested 0.5 mg/liter
Protocol: (§3) The action against the green alga Enteromorpha, which is the most important in seawter fouling, is investigated in sterile-filtered seawater containing an Erd-Schreiber solution. This solution is composed of a nutrient extract, phosphate and nitrate. The incubation of Enteromorpha intestinalis is carried out in a light thermostat at 18° C. under an alternation of 14 hours of light and 10 hours of darkness.
For determining the inhibitory concentration (MIC), the algae are kept in seawater containing biocide for the entire duration of the test (concentration tested: 0.5 mg/liter).

Serratia marcencens = experiment: Minimum inhibitory concentration against bacteria, strain D; type: cell-based; conditions: 24 hours at 30° C.; tested at 100 and 300 mg/liter
In short: as §1

[4] = system: Cladosporium cladosporioides; experiment: Minimum inhibitory concentration against fungi, agar incorporation test, strain O; type: cell-based; conditions: malt extract/agar
In short: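 Compounds incorporated into malt extract agar at final concentrations of 2, 5, 10, 50 and 100 mg/liter, with fungal traces added dropwise. Value is the concentration (mg/liter) required to inhibit fungal growth.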

Aspergillus phoenicis = experiment: Minimum inhibitory concentration against fungi, agar incorporation test, strain L; type: cell-based; conditions: malt extract/agar
In short: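 Agar incorporation test in malt extract agar with compound at final 2, 5, 10, 50 and 100 mg/liter, inoculated dropwise with fungus; value is concentration (mg/liter) inhibiting growth.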

[5] = system: Enteromorpha intestinalis; experiment: Action against Enteromorpha intestinalis: destruction (minimum killing concentration); type: in vivo; conditions: 4 hours in seawater, then 6-8 weeks in fresh seawater
Protocol: as §3
The algae which have been cultured in this way are exposed to the products under investigation for a short time (4 hours) in seawater. The minimum killing concentration (MKC) is determined by taking the algae out of the seawater containing a specific quantity of algicide, after the treatment time in the latter, washing the algae and investigating growth or mortality after incubation in fresh seawater for a further period of 6-8 weeks.
The minimum killing concentration (MKC) indicates the amount of substance required to cause such damage to the algae within a specific time that they can no longer recover in fresh seawater and die out.

[6] = system: mixed culture of bacteria; type: cell-based; parameters: key: +: growth, no destruction; (+): growth less than that of control (>10 colonies), slight destruction; (-): slight growth (1-10 colonies); -: no growth, destruction
Candida albicans = experiment: Minimum inhibitory concentration against fungi, agar incorporation test, strain P; type: cell-based; conditions: malt extract/agar
In short: as §2

Alternaria alternata = experiment: Minimum inhibitory concentration against fungi, agar incorporation test, strain N; type: cell-based; conditions: malt extract/agar
In short: as §2

Penicillium funiculosum = experiment: Minimum inhibitory concentration against fungi, agar incorporation test, strain M; type: cell-based; conditions: malt extract/agar
In short: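 Compounds incorporated into malt extract agar at final 2, 5, 10, 50 and 100 mg/liter, then inoculated dropwise with fungus. Value is the concentration (mg/liter) inhibiting growth.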

Artemia salina = experiment: Action against Artemia salina nauplii; type: in vivo; parameters: key: 0: no change; 1: slight change; 1-2: animals are attacked; 2: animals are strongly attacked; 2-3: animals are nearly all dead; 3: animals are all dead
Protocol: The eggs, which are available commercially, are caused to hatch by vigorous aeration. When 2-3 days old, the nauplii are exposed to the products at various concentrations (concentrations tested: 2.5; 1; 0.5 and 0.25 mg/liter) in synthetic seawater, and are observed over a prolonged period of time.

Proteus vulgaris = experiment: Minimum inhibitory concentration against bacteria, strain A; type: cell-based; conditions: 24 hours at 30° C.; tested at 100 and 300 mg/liter
In short: as §1

Aspergillus niger = experiment: Minimum inhibitory concentration against fungi, agar incorporation test, strain K; type: cell-based; conditions: malt extract/agar
In short: as §2

Endomyces geotrichum = experiment: Minimum inhibitory concentration against fungi, agar incorporation test, strain Q; type: cell-based; conditions: malt extract/agar
In short: as §2

Aureobasidium pullulans [7] = experiment: Growth on wood; parameters: key: 1: growth on the wood; 2: slight growth on the wood; 3: no growth on the wood; 4: no growth on the wood and an inhibitory zone; conditions: 28°, 4 weeks
Protocol: Small blocks of spruce wood, 7×10×10 mm in size, are dried in vacuo. The small blocks are then vacuum-impregnated by keeping them, in vacuo, in 100 ml of distilled water+biocide for 30 minutes and then subjecting them to a pressure treatment (2 atmospheres gauge by means of compressed air) for 18 hours in the water. The pieces of wood treated in this way are first subjected to leaching in running water and are then dried.
The dried pieces of wood are placed on potato/glucose agar and the wood, as well as the surrounding agar, is inoculated with 0.1 ml of a spore suspension of Aureobasidium pullulans. After incubation at 28° for 4 weeks, the growth is evaluated in accordance with the following rating: […]

[8] = 5 mg/l, culture diluted 1/1000 in Tyrode
[9] = 5 mg/l, culture diluted 1/10000 in Tyrode
[10] = 10 mg/l, culture diluted 1/1000 in Tyrode
[11] = 10 mg/l, culture diluted 1/10000 in Tyrode
[12] = 30 mg/l, culture diluted 1/1000 in Tyrode
[13] = 30 mg/l, culture diluted 1/10000 in Tyrode
[14] = 60 mg/l, culture diluted 1/1000 in Tyrode
[15] = 60 mg/l, culture diluted 1/10000 in Tyrode
[16] = 100 mg/l, culture diluted 1/1000 in Tyrode
[17] = 100 mg/l, culture diluted 1/10000 in Tyrode

CCCCCCCCCC[N+](C)(C)CCCCCCCCCC.CCC[CH2][Sn-]([Cl])([Cl])([CH2]CCC)[CH2]CCC [Example 4, dimethyl-didecylammonium tributyldichlorostannate-(IV)]
MIC against fungi, strain R (Aureobasidium pullulans [1]): 2 µg/mL
MIC against bacteria, strain C (Enterobacter aerogenes): 100 µg/mL
MIC against bacteria, strain E [2]: 100 µg/mL
Growth on the agar (algae-destroying action) (Chlorella vulgaris): --
Growth in the medium (growth inhibition) (Chlorella vulgaris): --
MIC against bacteria, strain F (Bacillus subtilis): 100 µg/mL
MIC against bacteria, strain B (Pseudomonas aeruginosa): 100 µg/mL
MIC against fungi, strain S (Chaetomium globosum): 2 µg/mL
MIC [3]: 0.5 µg/mL
MIC against bacteria, strain D (Serratia marcencens): 100 µg/mL
MIC against fungi, strain O [4]: 5 µg/mL
MIC against fungi, strain L (Aspergillus phoenicis): 5 µg/mL
Destruction, 5 mg/liter [5]: yes
Growth (destruction of a mixed culture of bacteria) [6, 8]: +
Growth (destruction of a mixed culture of bacteria) [6, 9]: +
Growth (destruction of a mixed culture of bacteria) [6, 10]: +
Growth (destruction of a mixed culture of bacteria) [6, 11]: (+) (growth less than that of control (>10 colonies), slight destruction)
Growth (destruction of a mixed culture of bacteria) [6, 12]: +
Growth (destruction of a mixed culture of bacteria) [6, 13]: -
Growth (destruction of a mixed culture of bacteria) [6, 14]: (+) (growth less than that of control (>10 colonies), slight destruction)
Growth (destruction of a mixed culture of bacteria) [6, 15]: -
Growth (destruction of a mixed culture of bacteria) [6, 16]: (+) (growth less than that of control (>10 colonies), slight destruction)
Growth (destruction of a mixed culture of bacteria) [6, 17]: -
MIC against fungi, strain P (Candida albicans): 5 µg/mL
MIC against fungi, strain N (Alternaria alternata): 2 µg/mL
MIC against fungi, strain M (Penicillium funiculosum): 5 µg/mL
Action against Artemia salina (Artemia salina; 0,5 mg/l, 6 hours): 1-3
Action against Artemia salina (Artemia salina; 0,5 mg/l, 24 hours): 2-3
Action against Artemia salina (Artemia salina; 0,5 mg/l, 48 hours): 3
Action against Artemia salina (Artemia salina; 0,25 mg/l, 6 hours): 0-1
Action against Artemia salina (Artemia salina; 0,25 mg/l, 24 hours): 2
Action against Artemia salina (Artemia salina; 0,25 mg/l, 48 hours): 2
Action against Artemia salina (Artemia salina; 1 mg/l, 6 hours): 2-3
Action against Artemia salina (Artemia salina; 1 mg/l, 24 hours): 3
Action against Artemia salina (Artemia salina; 1 mg/l, 48 hours): 3
Action against Artemia salina (Artemia salina; 2,5 mg/l, 6 hours): 2-3
Action against Artemia salina (Artemia salina; 2,5 mg/l, 24 hours): 3
Action against Artemia salina (Artemia salina; 2,5 mg/l, 48 hours): 3
MIC against bacteria, strain A (Proteus vulgaris): 100 µg/mL
MIC against fungi, strain K (Aspergillus niger): 2 µg/mL
MIC against fungi, strain Q (Endomyces geotrichum): 5 µg/mL

CCCCCCCCCCCC[n+]1ccccc1.CCC[CH2][Sn-]([Cl])([Cl])([CH2]CCC)[CH2]CCC [Example 6, Pyridine-Nlauryl / Tributyldichloro]
MIC against fungi, strain R (Aureobasidium pullulans [1]): 2 µg/mL
MIC against bacteria, strain C (Enterobacter aerogenes): 100 µg/mL
MIC against bacteria, strain E [2]: 100 µg/mL
Growth on the agar (algae-destroying action) (Chlorella vulgaris): --
Growth in the medium (growth inhibition) (Chlorella vulgaris): --
MIC against bacteria, strain F (Bacillus subtilis): 100 µg/mL
MIC against bacteria, strain B (Pseudomonas aeruginosa): 100 µg/mL
MIC against fungi, strain S (Chaetomium globosum): 2 µg/mL
MIC [3]: 0.5 µg/mL
MIC against bacteria, strain D (Serratia marcencens): 100 µg/mL
MIC against fungi, strain O [4]: 2 µg/mL
MIC against fungi, strain L (Aspergillus phoenicis): 2 µg/mL
Destruction, 5 mg/liter [5]: yes
Growth (destruction of a mixed culture of bacteria) [6, 8]: +
Growth (destruction of a mixed culture of bacteria) [6, 9]: +
Growth (destruction of a mixed culture of bacteria) [6, 10]: +
Growth (destruction of a mixed culture of bacteria) [6, 11]: +
Growth (destruction of a mixed culture of bacteria) [6, 12]: +
Growth (destruction of a mixed culture of bacteria) [6, 13]: +
Growth (destruction of a mixed culture of bacteria) [6, 14]: +
Growth (destruction of a mixed culture of bacteria) [6, 15]: +
Growth (destruction of a mixed culture of bacteria) [6, 16]: +
Growth (destruction of a mixed culture of bacteria) [6, 17]: +
MIC against fungi, strain P (Candida albicans): 5 µg/mL
MIC against fungi, strain N (Alternaria alternata): 2 µg/mL
MIC against fungi, strain M (Penicillium funiculosum): 5 µg/mL
Action against Artemia salina (Artemia salina; 0,5 mg/l, 6 hours): 1-2
Action against Artemia salina (Artemia salina; 0,5 mg/l, 24 hours): 2-3
Action against Artemia salina (Artemia salina; 0,5 mg/l, 48 hours): 3
Action against Artemia salina (Artemia salina; 0,25 mg/l, 6 hours): 1
Action against Artemia salina (Artemia salina; 0,25 mg/l, 24 hours): 2
Action against Artemia salina (Artemia salina; 0,25 mg/l, 48 hours): 2-3
Action against Artemia salina (Artemia salina; 1 mg/l, 6 hours): 2
Action against Artemia salina (Artemia salina; 1 mg/l, 24 hours): 3
Action against Artemia salina (Artemia salina; 1 mg/l, 48 hours): 3
Action against Artemia salina (Artemia salina; 2,5 mg/l, 6 hours): 2-3
Action against Artemia salina (Artemia salina; 2,5 mg/l, 24 hours): 3
Action against Artemia salina (Artemia salina; 2,5 mg/l, 48 hours): 3
MIC against bacteria, strain A (Proteus vulgaris): 100 µg/mL
MIC against fungi, strain K (Aspergillus niger): 2 µg/mL
MIC against fungi, strain Q (Endomyces geotrichum): 5 µg/mL
growth on wood, leached for 5 days (Aureobasidium pullulans [7]; 0.01 % in H2 O): 4
growth on wood, not leached (Aureobasidium pullulans [7]; 0.01 % in H2 O): 4
growth on wood, leached for 5 days (Aureobasidium pullulans [7]; 0.05 % in H2 O): 4
growth on wood, not leached (Aureobasidium pullulans [7]; 0.05 % in H2 O): 4
